Measurements: patent US10973779B2, “Astaxanthin compound composition and the method thereof” (Bioptik Technology, Inc., priority 2019, dated 2021)

What was measured:
Format in all cases: in vivo, Syrian hamsters
[1] = tested on: hamsters fed with high cholesterol diet; test: Animal experiments on lowering blood lipids: total cholesterol and triglyceride in the feces; conditions: Positive control (P), 124 mg/kg oral gavage, 8 weeks
Procedure: Male Syrian hamsters aged 6-7 weeks were tested for evaluating the effects of lowering blood lipid profile. Animals were divided into 6 groups, 8 hamsters in each group with a total of 48 hamsters. The experiment was conducted for 8 weeks, and the dosing method was oral gavage, and the animals of experimental groups were fed with the astaxanthin compound composition prepared according to the present invention. The dosage used was calculated according to the dosage for adult human. […] Based on this dosage, the 1×, 2× and 3× dosages were respectively defined for the following testing. The animals were fed with 1× (the converted dosage for hamster is 30.83 mg/kg), 2× (the converted dosage for hamster is 61.67 mg/kg) and 3× (the converted dosage for hamster is 92.50 mg/kg) dosages. At the same time, the clinically used anti-hyperlipidemic drug, Probucol, was used as comparison for evaluating the anti-hyperlipidemic effect. [table] Biostatistical analysis method: the results of the experiment were statistically tested based on one-way ANOVA by using SPSS 10.1 system. Then, the difference among the groups was tested by Duncan's Multiple Range Test. When the p value is smaller than 0.05 (P<0.05), it indicates statistically significant difference. […]

[2] = tested on: hamsters fed with high cholesterol diet; test: Animal experiments on lowering blood lipids: serum lipid profile
Procedure: Male Syrian hamsters aged 6-7 weeks were tested for evaluating the effects of lowering blood lipid profile. Animals were divided into 6 groups, 8 hamsters in each group with a total of 48 hamsters. The experiment was conducted for 8 weeks, and the dosing method was oral gavage, and the animals of experimental groups were fed with the astaxanthin compound composition prepared according to the present invention. The dosage used was calculated according to the dosage for adult human. […] Based on this dosage, the 1×, 2× and 3× dosages were respectively defined for the following testing. The animals were fed with 1× (the converted dosage for hamster is 30.83 mg/kg), 2× (the converted dosage for hamster is 61.67 mg/kg) and 3× (the converted dosage for hamster is 92.50 mg/kg) dosages. At the same time, the clinically used anti-hyperlipidemic drug, Probucol, was used as comparison for evaluating the anti-hyperlipidemic effect. [table] Biostatistical analysis method: the results of the experiment were statistically tested based on one-way ANOVA by using SPSS 10.1 system. Then, the difference among the groups was tested by Duncan's Multiple Range Test. When the p value is smaller than 0.05 (P<0.05), it indicates statistically significant difference. The experimental animals were sacrificed to have blood drawn and the results of total cholesterol (TC) and triglyceride (TG) were shown in Table 2. […] Please continue to refer to Table 2 for the effects of astaxanthin compound composition on high-density lipoprotein cholesterol (HDL-C), low-density lipoprotein cholesterol (LDL-C) in hamsters fed with high cholesterol diet.

[3] = tested on: hamsters fed with high cholesterol diet; test: Animal experiments on lowering blood lipids: total cholesterol and triglyceride in the liver
Procedure: Male Syrian hamsters aged 6-7 weeks were tested for evaluating the effects of lowering blood lipid profile. Animals were divided into 6 groups, 8 hamsters in each group with a total of 48 hamsters. The experiment was conducted for 8 weeks, and the dosing method was oral gavage, and the animals of experimental groups were fed with the astaxanthin compound composition prepared according to the present invention. The dosage used was calculated according to the dosage for adult human. […] Based on this dosage, the 1×, 2× and 3× dosages were respectively defined for the following testing. The animals were fed with 1× (the converted dosage for hamster is 30.83 mg/kg), 2× (the converted dosage for hamster is 61.67 mg/kg) and 3× (the converted dosage for hamster is 92.50 mg/kg) dosages. At the same time, the clinically used anti-hyperlipidemic drug, Probucol, was used as comparison for evaluating the anti-hyperlipidemic effect. [table] Biostatistical analysis method: the results of the experiment were statistically tested based on one-way ANOVA by using SPSS 10.1 system. Then, the difference among the groups was tested by Duncan's Multiple Range Test. When the p value is smaller than 0.05 (P<0.05), it indicates statistically significant difference. When the concentration of total cholesterol and triglyceride in the liver is too high, the risk of developing fatty liver may increase. According to the present Experimental Example, the concentration changes in total cholesterol and triglyceride in the liver and feces of the tested animals are shown in Table 3.

[4] = Positive control (P), 124 mg/kg oral gavage, 8 weeks, high cholesterol diet

## CC(C)(Sc1cc(C(C)(C)C)c(O)c(C(C)(C)C)c1)Sc1cc(C(C)(C)C)c(O)c(C(C)(C)C)c1 [Probucol]
[1]
  feces TC: 6.7 ± 0.9 mg/g
  feces TG: 15.8 ± 2.8 mg/g
[2]; [4]
  HDL-C in serum: 83 ± 11 mg/dL
  HDL-C/TC in serum: 0.707 ± 0.066
  LDL-C in serum: 31.8 ± 3.9 mg/dL
  LDL-C/HDL-C in serum: 0.392 ± 0.110
  LDL-C/TC in serum: 0.203 ± 0.032
  TC (total cholesterol) in serum: 157 ± 11 mg/dL
  TG (triglyceride) in serum: 152 ± 14 mg/dL
[2]; positive control group, 124 mg/kg, p<0.05
  total cholesterol in blood compared with vehicle control group: significantly lower
[3]; [4]
  liver TC: 3.80 ± 0.26 mg/g
  liver TG: 13.7 ± 1.5 mg/g
[3]; positive control (P) group, 124 mg/kg, p<0.05
  total cholesterol concentration in the liver compared with vehicle control group: significantly lower
